From the NIST ThermoML archive (doi:10.1021/je030132i)
± gives the expanded uncertainty stated by the source.

Key:
[1] = 101.3 kPa, Liquid; for viscosity: Capillary tube (Ostwald / Ubbelohde) method; for mass density: Vibrating tube method
[2] = xn = mol fraction of the nth substance listed; details: 101.3 kPa, Liquid, x2 = 0; for viscosity: Capillary tube (Ostwald / Ubbelohde) method; for mass density: Vibrating tube method

viscosity ([1]; 318.65 K) [mPa·s] | mass density ([1]; 318.65 K) [kg/m3] | viscosity ([1]; 323.15 K) [mPa·s] | mass density ([1]; 323.15 K) [kg/m3] | viscosity ([1]; 333.15 K) [mPa·s] | mass density ([1]; 333.15 K) [kg/m3] | viscosity ([1]; 343.15 K) [mPa·s] | mass density ([1]; 343.15 K) [kg/m3] | viscosity ([1]; 298.15 K) [mPa·s] | viscosity ([1]; 313.15 K) [mPa·s] | viscosity ([2]; 298.15 K) [mPa·s] | viscosity ([2]; 313.15 K) [mPa·s] | viscosity ([2]; 318.65 K) [mPa·s] | viscosity ([2]; 323.15 K) [mPa·s] | mass density ([2]; 323.15 K) [kg/m3] | viscosity ([2]; 333.15 K) [mPa·s] | mass density ([2]; 333.15 K) [kg/m3] | viscosity ([2]; 343.15 K) [mPa·s] | mass density ([2]; 343.15 K) [kg/m3] | SMILES
186.6 ± 4.6 | 988.22 ± 1 | 125.7 ± 2.3 | 984.9 ± 1 | 57.99 ± 0.62 | 977.3 ± 1 | 29.55 ± 0.33 | 969.58 ± 0.99 | – | – | – | – | – | – | – | – | – | – | – | CC(O)CNCC(C)O (stereo unspecified) [N-(2-hydroxypropyl)-2-hydroxy-1-propanamine]
0.595 ± 0.004 | – | 0.547 ± 0.004 | 988.04 ± 0.08 | 0.466 ± 0.003 | 983.12 ± 0.08 | 0.405 ± 0.003 | 977.77 ± 0.08 | 0.89 ± 0.006 | 0.653 ± 0.004 | – | – | – | – | – | – | – | – | – | O [water]
– | – | – | – | – | – | – | – | – | – | 0.89 ± 0.006 | 0.653 ± 0.004 | 0.595 ± 0.004 | 0.547 ± 0.004 | 988.04 ± 0.08 | 0.466 ± 0.003 | 983.12 ± 0.08 | 0.405 ± 0.003 | 977.77 ± 0.08 | O [water] + CC(O)CNCC(C)O
